Test: Inhibition of Influenza A virus H1N1 Neuraminidase

CCC(CC)O[C@@H]1C=C(C(=O)O)C[C@H](NCc2ccc(Sc3ccccc3)cc2)[C@H]1NC(C)=O
IC50: 5.6 nM

Reference: BindingDB's records for PubMed 34735766 (Shandong University, 2021)
